Values quoted from earlier work in US8895065B2, “Single unit oral dose pharmaceutical composition comprising levodopa, carbidopa and entacapone or salts thereof” (Wockhardt Ltd., priority 2008, dated 2014).

Compound | solubility in water
C[C@@](Cc1ccc(O)c(O)c1)(NN)C(=O)O [Carbidopa] | slightly soluble
N[C@@H](Cc1ccc(O)c(O)c1)C(=O)O [Levodopa, (−)-L-α-amino-β-(3,4-dihydroxybenzene)propanoic acid] | slightly soluble
